Experimental data taken from PMC9272661 (Antiviral Research, 2022).

Assays:
SARS-CoV-2 3CLpro [1] = biological target: T1, SARS-CoV-2 3CLpro (Severe acute respiratory syndrome coronavirus 2, UniProt P0DTD1); experiment: FRET-based enzymatic assay of 3CLpro; assay type: biochemical; details: at 50 μM concentration
SARS-CoV-2 3CLpro [2] = biological target: T1, SARS-CoV-2 3CLpro; experiment: Inhibition of cleavage of TriPro substrate protein; assay type: biochemical; details: 0.8 μM 3CLpro, 1 h preincubation, SDS-PAGE
SARS-CoV-2 3CLpro [3] = biological target: T1, SARS-CoV-2 3CLpro; experiment: Enzyme kinetics, Lineweaver-Burk plots; assay type: biochemical; details: 200 nM 3CLpro, inhibitor 5 μM or 10 μM
SARS-CoV-2 3CLpro [4] = biological target: T1, SARS-CoV-2 3CLpro; experiment: Surface plasmon resonance binding to immobilized 3CLpro; details: 0.164-100 μM, 25 °C, n = 3

Row | SMILES | Inhibitory activity against SARS-CoV-2 3CLpro (SARS-CoV-2 3CLpro [1]) | Inhibition of cleavage of TriPro substrate protein (SARS-CoV-2 3CLpro [2]) | Inhibition Type (SARS-CoV-2 3CLpro [3]) | KD (SPR, steady-state affinity model) (SARS-CoV-2 3CLpro [4])
1 | O=C(Nc1ccc([N+](=O)[O-])cc1Cl)c1cc(Cl)ccc1O [niclosamide] | does not inhibit | – | – | –
2 | Cl.NCCOc1ccc(Cl)cc1C(=O)NCC(=O)Nc1ccc([N+](=O)[O-])cc1Cl [JMX0286, 2-(2-Aminoethoxy)-5-chloro-N-(2-((2-chloro-4-nitrophenyl)amino)-2-oxoethyl)benzamide hydrochloride] | – | inhibited the cleavage of the TriPro substrate protein in a dose dependent manner | Non-competitive | –
3 | CC(C)(C)OC(=O)NCCOc1ccc(Cl)cc1C(=O)NCC(=O)Nc1ccc([N+](=O)[O-])cc1Cl [JMX0301, Tert-Butyl (2-(4-chloro-2-((2-((2-chloro-4-nitrophenyl)amino)-2-oxoethyl)carbamoyl)phenoxy)ethyl)carbamate] | – | inhibited the cleavage of the TriPro substrate protein in a dose dependent manner | Non-competitive | did not show binding
